The target in data set [1] is T1, human ABCG2 transporter (Homo sapiens, UniProt Q9UNQ0).
T1 construct: expressed in transfected cells; host or cells: MDCKII (Madin-Darby canine kidney) cells transfected with human ABCG2
T1 sequence (Q9UNQ0 1-655): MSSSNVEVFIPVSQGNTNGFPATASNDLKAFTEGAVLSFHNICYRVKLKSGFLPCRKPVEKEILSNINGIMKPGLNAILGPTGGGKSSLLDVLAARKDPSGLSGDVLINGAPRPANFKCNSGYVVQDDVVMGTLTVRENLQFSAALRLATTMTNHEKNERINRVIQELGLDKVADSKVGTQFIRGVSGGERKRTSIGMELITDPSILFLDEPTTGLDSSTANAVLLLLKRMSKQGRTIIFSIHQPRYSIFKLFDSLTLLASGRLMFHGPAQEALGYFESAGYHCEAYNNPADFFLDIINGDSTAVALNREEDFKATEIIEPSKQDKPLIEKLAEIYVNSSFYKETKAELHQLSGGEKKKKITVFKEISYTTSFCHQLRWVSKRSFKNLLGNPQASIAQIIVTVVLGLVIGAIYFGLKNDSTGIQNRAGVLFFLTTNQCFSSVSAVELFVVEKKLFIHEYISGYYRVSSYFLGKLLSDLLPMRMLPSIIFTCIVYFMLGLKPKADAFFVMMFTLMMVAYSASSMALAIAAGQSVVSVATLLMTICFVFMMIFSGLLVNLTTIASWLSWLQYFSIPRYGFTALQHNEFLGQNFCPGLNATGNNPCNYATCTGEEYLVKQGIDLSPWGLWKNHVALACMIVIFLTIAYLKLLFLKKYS
Nature of the data set: Hoechst 33342 accumulation assay (MDCKII-hABCG2 vs MDCKII-WT). In kind it is cell-based. The conditions noted are these: for intracellular Hoechst 33342 accumulation / inhibition of ABCG2-mediated Hoechst efflux: 0.5 and 1.0 µM compound, Ko143 1 µM, 4 h, vs solvent control; for inhibition of human ABCG2 transporter in Hoechst 33342 accumulation assay: 0.5 µM. As for the experimental part:
The Hoechst 33342 accumulation assay was used to detect an interaction of the investigated compounds with the human ABCG2 transporter. The assay protocol was adapted from that published by Wassermann et al.. The MDCKII-hABCG2 (2 × 10^4 cells/mL) and MDCKII-WT (3 × 10^4 cells/mL) cells were seeded in 96-well plates and cultured for 72 h. Afterwards, the sub-confluent monolayers were treated with 0.5 µM and 1.0 µM of the investigational compounds or its respective solvent control (0.1% DMSO) for 4 h. […] After 5 and 20 min, the cells were washed twice with ice-cold PBS buffer solution and lyzed with 100 µL/well 0.1% (v/v) SDS/PBS. The intracellular Hoechst 33342 amount was detected by spectrofluorometry (360 nm excitation/465 nm emission wavelengths, Tecan Infinite F200 Pro, Crailsheim, Germany). The examined fluorescence subtracted by the background of non-treated cells was correlated to the protein amount quantified by the bicinchoninic acid assay (BCA, Thermo Scientific, Rockford, IL, USA) following the manufacturer’s instructions. Relative fluorescence units (RFU) were calculated as the relation of fluorescence/mg protein of MDCKII-hABCG2 cells to MDCKII-WT cells, normalized to the solvent control set as 1 and expressed as mean ± SEM. The data from the Hoechst 3342 accumulation assay (five independent experiments N = 5) were tested for normality with the Shapiro-Wilk test. Significant differences compared to the solvent control were analyzed by one-way ANOVA with the Holm-Šidák post hoc test using SigmaPlot 14.5 (Systec Software, San Jose, CA, USA). An inhibition of human ABCG2 efflux transport activity is defined as the significant difference to the solvent control (0.1% DMSO).

The test system of data set [2] is MDCKII-hABCG2 cells. The data set is described as follows: WST-1 cell proliferation assay (cytotoxicity), MDCKII-hABCG2. In kind it is cell-based, canine. The settings on record: for IC50: WST-1, 48 h, IC50 = 50% reduced cell viability, mean ± SEM, N = 3; for cell viability: MDCKII-hABCG2, highest concentration 50 µM, 48 h. As for the experimental part: (§1) The MDCKII-hABCG2 and MDCKII-WT cells were purchased from Alfred Schinkel (Het Nederlands Kanker Instituut, Amsterdam, The Netherlands) and were cultivated in MEM (minimal essential medium) with Earle’s Salts (2.2 g/L NaHCO3, stable glutamine; Biowest, Nuaillé, France) supplemented with 10% (v/v) fetal calf serum (Life Technology, Karlsruhe, Germany), 1% (v/v) non-essential amino acids (Biowest, Nuaillé, France), 100 U/mL penicillin, and 100 µg/mL streptomycin (Biowest, Nuaillé, France). The cells were grown in a humidified atmosphere (37 °C, 5% CO2) and were sub-cultured every 3 to 4 days using 0.05% trypsin/0.02% EDTA (Biowest, Nuaillé, France), up to a total of 14 passages.
(§2) MDCKII-hABCG2 cells and their parental MDCKII-WT cells were seeded in 96-well plates (TPP, Trasadingen, Switzerland) in a density of 2 × 10^4 cells/mL and 3 × 10^4 cells/mL, respectively. After 48 h, the cells were incubated with increasing concentrations of up to 50 µM of the novel synthesized compounds, with 0.1% Triton X-100 as the positive control and solvent (0.1% DMSO) as the negative control for 48 h. Afterwards, the substance-specific cytotoxicity was determined by the water-soluble tetrazolium-1 (4-[3-(4-iodophenyl)-2-(4-nitro-phenyl)-2H-5-tetrazolio]-1,3-benzene sulfonate; WST-1) assay as previously described. The cell viability was determined by microplate reader at 450 nm (Tecan Sunrise, Crailsheim, Germany). The data of three independent experiments (N = 3) were tested for normality with the Shapiro-Wilk test. The significant differences compared to solvent control were analyzed by one-way ANOVA with the Holm-Šidák post hoc test using SigmaPlot 14.5 (Systec Software, San Jose, CA, USA). The data were normalized against the vehicle control (0.1% DMSO) and were expressed as mean ± SEM.

Data set [3] relates to MDCKII-WT cells. The data set is described as follows: WST-1 cell proliferation assay (cytotoxicity), MDCKII-WT. In kind it is cell-based, canine. The settings on record: WST-1, 48 h; for IC50: IC50 = 50% reduced cell viability, mean ± SEM, N = 3. As for the experimental part:
as §1, §2

Data set [4] concerns MDCKII-hABCG2 cells. The data set is described as follows: Reversal of ABCG2-mediated mitoxantrone resistance (WST-1). Type of data set: cell-based, canine. The settings on record: for Left-Shift Factor: MDCKII-hABCG2, MXN + 1 µM compound, (IC50 minus SEM of MXN alone) by (IC50 plus SEM of combination). As for the experimental part:
Afterwards, the WST-1 assay was performed as described. […] All data were normalized against the vehicle control and were expressed as mean ± SEM, calculated from at least three independent experiments.

Entries after “also recorded” stand apart in the source; their conditions may differ. Bounds are passed on as bounds.

On to “N-(closo-1,7-dicarbadodecaboran(12)-9-yl)-2-(3,4,5-trimethoxyphenyl)-quinazolin-4-amine [QCd]”, for which the “intracellular Hoechst 33342 accumulation / inhibition of ABCG2-mediated Hoechst efflux” value in data set [1] is reported as “did not affect the human ABCG2-mediated Hoechst efflux”. The IC50 in data set [2] and in data set [3] was more than 50 µM throughout.

With “N-(closo-1,7-dicarbadodecaboran(12)-9-yl)-2-(3,4-dimethoxyphenyl)-quinazolin-4-amine [QCc]”, the “inhibition of human ABCG2 transporter in Hoechst 33342 accumulation assay” value in data set [1] is given as “inhibited the human ABCG2 transporter”. Also, in data set [1], the “intracellular Hoechst 33342 accumulation / inhibition of ABCG2-mediated Hoechst efflux” value is “the only compound exhibiting inhibition within the tested concentration range”. Also, the decreased cell viability result in data set [2] (MDCKII-hABCG2, WST-1, 48 h, up to 50 µM) is on record as “about 40%”. Further, the IC50 in data set [2] and in data set [3] was more than 50 µM each time. For the same substance, in data set [4] (MDCKII-hABCG2, 1 µM compound with MXN), the “reversal of MXN resistance” value is “able to reverse MXN resistance”. In addition, the “Left-Shift Factor” value in data set [4] was 5.4-fold.

As for “N-(closo-1,7-dicarbadodecaboran(12)-9-yl)-2-(4-methoxyphenyl)-quinazolin-4-amine [QCb]”, in data set [1], the “intracellular Hoechst 33342 accumulation / inhibition of ABCG2-mediated Hoechst efflux” value was “did not affect the human ABCG2-mediated Hoechst efflux”. In data set [2], this substance came in with a cell viability of 30% and an IC50 of more than 10 µM. In addition, half-maximal inhibition in data set [3] (IC50) required 44.17 ± 0.174 µM.

Consider “N-(closo-1,7-dicarbadodecaboran(12)-9-yl)-2-phenylquinazolin-4-amine [QCa]”, for which the “intracellular Hoechst 33342 accumulation / inhibition of ABCG2-mediated Hoechst efflux” value in data set [1] was “did not affect the human ABCG2-mediated Hoechst efflux”. Moreover, in data set [2], the cell viability worked out at 30%. Besides, the IC50 was more than 10 µM in data set [2] and 43.23 ± 0.159 µM in data set [3].

Regarding “N-(closo-1,7-dicarbadodecaboran(12)-9-yl)-6,7-dimethoxy-2-(3,4,5-trimethoxyphenyl)-quinazolin-4-amine [DMQCd]”, in data set [1], the “inhibition of human ABCG2 transporter in Hoechst 33342 accumulation assay” value is given as “inhibited the human ABCG2 transporter” and the “intracellular Hoechst 33342 accumulation / inhibition of ABCG2-mediated Hoechst efflux” value is listed as “strongest inhibition at 0.5 µM with a comparable level as the reference Ko143”. Besides, the IC50 in data set [2] is more than 50 µM. For the same substance, in data set [3], the IC50 was more than 50 µM.

In the case of “N-(closo-1,7-dicarbadodecaboran(12)-9-yl)-6,7-dimethoxy-2-(3,4-dimethoxy-phenyl)-quinazolin-4-amine [DMQCc]”, the “intracellular Hoechst 33342 accumulation / inhibition of ABCG2-mediated Hoechst efflux” value in data set [1] was “only marginal increases in Hoechst 33342 accumulation; also recorded: no significant inhibition”. In addition, the IC50 in data set [2] and in data set [3] was more than 50 µM each time. Besides, in data set [4], the “Left-Shift Factor” value was 9.8-fold.

As to “N-(closo-1,7-dicarbadodecaboran(12)-9-yl)-6,7-dimethoxy-2-(4-methoxy-phenyl)quinazolin-4-amine [DMQCb]”, the “intracellular Hoechst 33342 accumulation / inhibition of ABCG2-mediated Hoechst efflux” value in data set [1] is reported as “only marginal increases in Hoechst 33342 accumulation; also recorded: no significant inhibition”. Also, the IC50 in data set [2] and in data set [3] was more than 25 µM throughout. This substance also registered a decreased cell viability in data set [3] (MDCKII-WT) of approximately 30%. The “Left-Shift Factor” value in data set [4] is recorded as 7.2-fold.

“N-(closo-1,7-dicarbadodecaboran(12)-9-yl)-6,7-dimethoxy-2-phenyl-quinazolin-4-amine [DMQCa]”: in data set [1], the “intracellular Hoechst 33342 accumulation / inhibition of ABCG2-mediated Hoechst efflux” value is reported as “improved inhibitory potency at 1.0 µM”. Moreover, the IC50 in data set [2] and in data set [3] was more than 50 µM each time. Also, in data set [4], the “Left-Shift Factor” value was 4.3-fold.

Source of the values: article PMC9866861, “The More the Better—Investigation of Polymethoxylated N-Carboranyl Quinazolines as Novel Hybrid Breast Cancer Resistance Protein Inhibitors” (Pharmaceutics, 2023).
